Bridge positions count the residues as written; N and C are the ends. Ends that are not written are not given here. Peptide text beside a SMILES is read from it.
Legend:
[1] = system: DU145 (human prostate cancer cells); conditions: for effect of mutation of R9-MPF13 on the anti-proliferative effect: relative to R9-MPF13; for inhibitory effect on the proliferation of prostate cancer cells DU145: DU145, 48 hours, MTT
Protocol: 5.2 Some of the polypeptides in Table 1 were prepared into a 10 mM mother solution with sterile pure water, and the mother solution is gradiently diluted with a basal culture medium, the diluted polypeptide solution was added to 96-well plates with DU145 cells pre-laid, 100 μL per well, and four replicates for each concentration. After 48 hours of treatment, the modified MTT kit was used to treat and measure the OD value at 580 nm, and the results were calculated and analyzed.
(§4) The experiment method includes: the polypeptide was prepared into a 10 mM mother solution with sterile pure water, and after gradient dilution with a basal culture medium, the diluted polypeptide solution was added to a 96-well plate with various cells pre-laid, 100 μL per well, and four replicates for each concentration. After 48 hours of treatment, the modified MTT kit was used to treat and measure the OD value at 580 nm, and the results are calculated and analyzed.

PC3 cells = assay: Growth/proliferation inhibition, CCK-8 and clone formation, PC3; assay type: cell-based, human; conditions: for effect of inhibiting cell growth after combining with the cell-penetrating peptide R9: CCK-8, 24 hours, peptide connected with R9
Protocol: (§1) 5.1 Referring to FIG. 5A, the polypeptides R9, RM3, and RSM3 were prepared into a 50 mM mother solution with sterile pure water, and the mother solution was gradiently diluted with a basal culture medium, the diluted peptide solution was added to 96-well plates pre-laid with PC3 and DU145 cells, 100 μL per well, and three replicates for each concentration. After 24 h of treatment, the OD value at 450 nm was measured with a CCK-8 kit, and the results were calculated and analyzed.
(§2) FIG. 5B illustrates a clone formation experiment, the grown PC3 and DU145 cells were digested with 0.25% trypsin and the number of cells were counted, 300 cells were added to each well of the six-well plate, and 2 ml of complete culture medium was added to continue culturing for 24 hours. M3, R9, RM3, and RSM3 were added to each well and cultured for 7 days, the medium was discarded, the cells were washed, stained with crystal violet, and then microscopically photographed, and the number of the cells were counted.
(§3) Referring to FIG. 6, the above two polypeptides were prepared into a 50 mM mother solution with sterile pure water, and then gradiently diluted with a basal culture medium, the diluted peptide solution was added to a 96-well plate pre-laid with PC3 and DU145 cells, 100 μL per well, and three replicates for each concentration. After 24 hours of treatment, the OD value was measured at 450 nm using CCK-8, and the obtained values were calculated.

DU145 cells = assay: Growth/proliferation inhibition, CCK-8 and clone formation, DU145; assay type: cell-based, human; conditions: for effect of inhibiting cell growth after combining with the cell-penetrating peptide R9: CCK-8, 24 hours, peptide connected with R9
Protocol: as §1, §2, §3

RNA methylation = assay: Determination of RNA methylation (m6A) in prostate cancer cells, dot blot; assay type: cell-based, human; conditions: PC3 and DU145 cells, 12 hours
Protocol: In FIG. 3, MB is methylene blue staining, and m^6A is methylation content. 500 ng and 3000 ng are the loaded sample amounts of RNA in the experiment.

METTL3 = biological target: T1, METTL3 (Homo sapiens, UniProt Q86U44); assay: Inhibition of METTL3 expression in prostate cancer cells, immunoblot; assay type: cell-based; conditions: PC3 and DU145 cells, 20 μM, 24 hours
T1 construct: endogenous in cells; host or cells: PC3 and DU145 cells
Protocol: Referring to FIG. 4, a certain amount of polypeptide was weighed and dissolved into a 50 mM mother solution, the polypeptides R9, RM3, and RSM3 were prepared into a 50 mM mother solution with sterile pure water, after gradient dilution, the mother solution were added to a 6-well plate with PC3 and DU145 cells pre-laid, the final concentration of the polypeptide was 20 μM, 2 mL per well, and three replicates were used for each concentration. After 24 hours of treatment, the cells were lysed to extract cell proteins, and the proteins were separated by electrophoresis and transferred to a PVDF membrane, to incubate the primary antibody and secondary antibody of METTL3, and finally exposed for imaging.
In FIG. 4, GAPDH is an internal reference in the immunoblotting experiment (WB experiment).

[2] = Drug safety assessment in vivo, blood indexes; design: species or system C57BL/C mice; conditions: 50 mg/kg intraperitoneal once, 24 hours; for platelets (PLT) / red blood cells (RBC) / white blood cells (WBC) in the blood: compared with R9 and PBS; for white blood cells (WBC) in the blood / hemoglobin (HMGB): within the normal range
Protocol: Referring to FIGS. 7A to 7H, (A) drug safety assessment in vivo: C57BL/C mice raised for 7 weeks were intraperitoneally injected with a dose of 50 mg/kg (R9, RM3, RSM3) once, after 24 hours, the mice were sacrificed and the blood of the mice was taken to measure indexes such as white blood cells, platelets, red blood cells, and hemoglobin, to analyze toxicity of the drug to normal animals.

[3] = system: PC3 prostate cancer cells with high expression of METTL3; assay: Anti-tumor experiment in vivo, PC3 prostate tumor-bearing mouse model; design: species or system BALB/c nude mice; conditions: for body weight changes: tumor model mice
Protocol: (B) Anti-tumor experiment in vivo: a prostate tumor-bearing mouse model is selected, the specific steps to construct the animal model are as follows: PC3 prostate cancer cells with high expression of METTL3 were cultured to a logarithmic growth phase, the PC3 prostate cancer cells were digested, collected, and prepared into a cell suspension with a concentration of 1×10^7 cells/mL. 4 to 6 week-old male and female BALB/c nude mice were taken, and were injected with 100 μL of cell suspension into the back of the hind limbs, to establish a tumor model. After a diameter of the mouse tumor grows to about 0.5 cm, the mice were randomly divided into groups according to the experimental requirements: PBS, R9, RM3, RSM3, etc. Peritumoral administration is performed on the mice, once every two days, for two consecutive weeks.

[4] = system: HCT116 (colorectal cancer cell line); conditions: 48 h
Protocol: as §4

[5] = system: OVCAR-3 (ovarian adenocarcinoma cells); conditions: 48 h
Protocol: as §4

[6] = system: HepG2 (human hepatoblastoma cells); conditions: 48 h
Protocol: as §4

[7] = system: Hela (human anterior cervical cancer cells); conditions: 48 h
Protocol: as §4

[8] = system: A375 (human malignant melanoma); conditions: 48 h
Protocol: as §4

[9] = system: K562 (human chronic myeloid leukemia cells); conditions: 48 h
Protocol: as §4

[10] = system: A549 (lung cancer human alveolar basal epithelial cells); conditions: 48 h
Protocol: as §4

[11] = system: SaoS2 (human osteosarcoma cells); conditions: 48 h
Protocol: as §4

METTL3 and METTL14 = METTL3 and METTL14 (Homo sapiens, UniProt Q86U44); assay: Binding to METTL3 and METTL14 proteins in vitro
[12] = CCK-8 24 h, clone formation 7 days
[13] = peritumoral administration once every two days for two weeks

T1 sequence (Q86U44 2-580 limits assumed): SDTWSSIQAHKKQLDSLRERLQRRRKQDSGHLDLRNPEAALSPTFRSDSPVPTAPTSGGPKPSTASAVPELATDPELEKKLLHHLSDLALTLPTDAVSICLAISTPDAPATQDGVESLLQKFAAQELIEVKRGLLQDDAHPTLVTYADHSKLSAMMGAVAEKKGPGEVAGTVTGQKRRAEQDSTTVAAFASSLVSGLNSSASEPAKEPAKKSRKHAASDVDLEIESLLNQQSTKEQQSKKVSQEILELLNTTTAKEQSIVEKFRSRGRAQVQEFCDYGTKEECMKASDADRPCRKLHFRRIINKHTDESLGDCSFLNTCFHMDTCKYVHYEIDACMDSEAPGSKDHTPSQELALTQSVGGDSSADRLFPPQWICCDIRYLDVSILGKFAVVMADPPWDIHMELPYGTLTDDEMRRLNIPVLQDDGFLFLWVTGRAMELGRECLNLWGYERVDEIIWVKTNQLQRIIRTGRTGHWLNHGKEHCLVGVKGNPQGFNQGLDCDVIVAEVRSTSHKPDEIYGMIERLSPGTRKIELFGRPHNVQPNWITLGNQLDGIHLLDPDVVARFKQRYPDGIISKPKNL
Sequence of METTL3 and METTL14 (Q86U44 whole entry, species assumed): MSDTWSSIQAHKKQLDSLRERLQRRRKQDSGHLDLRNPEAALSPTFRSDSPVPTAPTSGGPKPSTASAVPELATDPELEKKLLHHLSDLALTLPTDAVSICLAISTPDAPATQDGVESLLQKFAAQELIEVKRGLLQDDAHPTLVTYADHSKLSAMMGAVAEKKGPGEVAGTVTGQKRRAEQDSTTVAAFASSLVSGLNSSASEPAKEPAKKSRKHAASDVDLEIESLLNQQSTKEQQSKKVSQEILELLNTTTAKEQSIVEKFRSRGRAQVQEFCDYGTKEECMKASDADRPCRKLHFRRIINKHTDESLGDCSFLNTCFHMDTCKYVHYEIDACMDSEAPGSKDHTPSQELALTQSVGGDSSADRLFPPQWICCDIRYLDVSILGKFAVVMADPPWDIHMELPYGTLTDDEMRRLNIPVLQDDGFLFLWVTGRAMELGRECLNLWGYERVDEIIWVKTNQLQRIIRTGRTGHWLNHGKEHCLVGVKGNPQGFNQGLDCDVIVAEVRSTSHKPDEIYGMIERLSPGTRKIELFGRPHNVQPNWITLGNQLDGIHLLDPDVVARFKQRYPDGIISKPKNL

## RRRRRRRRRRAMELGRECLNLA [Polypeptide R9-RA]
[1]
  effect of mutation of R9-MPF13 on the anti-proliferative effect: weaken the anti-proliferative effect

## FGRPHNVQ [Polypeptide M2, tested after being connected with the cell-penetrating peptide R9]
PC3 cells
  effect of inhibiting cell growth after combining with the cell-penetrating peptide R9: certain effect of inhibiting cell growth
DU145 cells
  effect of inhibiting cell growth after combining with the cell-penetrating peptide R9: certain effect of inhibiting cell growth

## RRRRRRRRRRKMELGREYLNLW [Polypeptide R9-RKY]
[1]
  effect of mutation of R9-MPF13 on the anti-proliferative effect: enhance the anti-proliferative effect

## RRRRRRRRRRAMEEGRECLNLW [Polypeptide R9-RE]
[1]
  effect of mutation of R9-MPF13 on the anti-proliferative effect: weaken the anti-proliferative effect

## QLQRIIRTGRTGHWLNHG [Polypeptide M1, tested after being connected with the cell-penetrating peptide R9]
PC3 cells
  effect of inhibiting cell growth after combining with the cell-penetrating peptide R9: certain effect of inhibiting cell growth
DU145 cells
  effect of inhibiting cell growth after combining with the cell-penetrating peptide R9: certain effect of inhibiting cell growth

## RSM3: stapled peptide from RM3, 10th and 17th cysteines connected through 4,4-bis(bromomethyl)biphenyl (RRRRRRRRRCMELGRECLNLW; linker 10-17 via 4,4‑bis(bromomethyl)biphenyl)
RNA methylation
  inhibition of RNA methylation (m6A): better in terms of stability and methylation inhibition effect
RNA methylation; listed as R SM3
  inhibition of RNA methylation (m6A): significantly inhibit the RNA methylation
METTL3
  inhibition of the expression of METTL3: inhibit the expression of METTL3
PC3 cells; [12]
  inhibitory effect on the growth of prostate cancer cells: good inhibitory effect
[2]
  platelets (PLT): no significant effect
  red blood cells (RBC): no significant effect
  white blood cells (WBC) in the blood: slightly increased this index
  hemoglobin (HMGB): a certain reducing effect
[3]; compared with R9 group and PBS, peritumoral administration once every two days for two weeks
  tumor mass: significantly less
[3]; overall comparison of the METTL3 polypeptide inhibitors
  effect of inhibiting the growth of prostate tumors: more effective
[3]; [13]
  tumor volume changes: significantly inhibit the increase in tumor volume
  body weight changes: no significant effect on the body weight
DU145 cells; [12]
  inhibitory effect on the growth of prostate cancer cells: good inhibitory effect

## RRRRRRRRRRKMELGREFLNLW [Polypeptide R9-RKF]
[1]
  effect of mutation of R9-MPF13 on the anti-proliferative effect: enhance the anti-proliferative effect

## CSCC[C@H](NC(=O)[C@H](CS)NC(=O)[C@H](CCCNC(=N)N)NC(=O)[C@H](CCCNC(=N)N)NC(=O)[C@H](CCCNC(=N)N)NC(=O)[C@H](CCCNC(=N)N)NC(=O)[C@H](CCCNC(=N)N)NC(=O)[C@H](CCCNC(=N)N)NC(=O)[C@H](CCCNC(=N)N)NC(=O)[C@H](CCCNC(=N)N)NC(=O)[C@@H](N)CCCNC(=N)N)C(=O)N[C@@H](CCC(=O)O)C(=O)N[C@@H](CC(C)C)C(=O)NCC(=O)N[C@@H](CCCNC(=N)N)C(=O)N[C@@H](CCC(=O)O)C(=O)N[C@@H](CS)C(=O)N[C@@H](CC(C)C)C(=O)N[C@@H](CC(N)=O)C(=O)N[C@@H](CC(C)C)C(=O)N[C@@H](Cc1c[nH]c2ccccc12)C(N)=O [RM3] (H-RRRRRRRRRCMELGRECLNLW-NH2)
[2]
  platelets (PLT): no significant effect
  red blood cells (RBC): no significant effect
  white blood cells (WBC) in the blood: slightly increased this index
  hemoglobin (HMGB): a certain reducing effect
[3]; [13]
  body weight changes: no significant effect on the body weight

## RRRRRRRRRRKMELGRELLNLW-NH2 (C-terminus assumed) [Polypeptide R9-RKL]
[4]
  IC50: < 11 µM
[5]
  IC50: < 11 µM
[6]
  IC50: < 11 µM
[7]
  IC50: < 11 µM
[8]
  IC50: < 11 µM
[1]; 48 h
  IC50: < 11 µM
[1]
  inhibitory effect on the proliferation of prostate cancer cells DU145: better inhibitory effect
  effect of mutation of R9-MPF13 on the anti-proliferative effect: enhance the anti-proliferative effect
[9]
  IC50: < 11 µM
[10]
  IC50: < 11 µM
[11]
  IC50: < 11 µM

## RRRRRRRRRRKWELGRELLNLW [Polypeptide R9-RKWL]
[1]
  inhibitory effect on the proliferation of prostate cancer cells DU145: better inhibitory effect
  effect of mutation of R9-MPF13 on the anti-proliferative effect: enhance the anti-proliferative effect

## RRRRRRRRRRKMELGREMLNLW [Polypeptide R9-RKM]
[1]
  effect of mutation of R9-MPF13 on the anti-proliferative effect: enhance the anti-proliferative effect

## RRRRRRRRRRKWCLGRELLCLW (stapled peptide precursor) [Polypeptide R9-PSRKWL]
[1]
  inhibitory effect on the proliferation of prostate cancer cells DU145: better inhibitory effect

## RRRRRRRRRRRMELGRELLNLW [Polypeptide R9-RRL]
[1]
  effect of mutation of R9-MPF13 on the anti-proliferative effect: enhance the anti-proliferative effect

## ELGRECLNLW [Polypeptide M3]
METTL3 and METTL14
  binding to the proteins of METTL3 and METTL14: can bind

— patent US20250296956A1, “POLYPEPTIDE, PREPARATION METHOD, AND USE THEREOF” (Hunan University, priority 2022, published 2025)
